# Assay results reported in patent US11220521B2, “Optically-active 2-amino-phosphonoalkane acid, optically-active 2-amino-phosphonoalkane acid salt, and hydrates of these” (priority 2017, dated 2022).
# Experiments:
# [1] = tested on: normal human epidermal cells; assay: Evaluation for glutathione production promoting activity (total glutathione amount, glutathione reductase recycling assay); type: cell-based; details: for GSH (pmol/μg-protein) Mean ± S.D.: 24-hour cultivation, n=4; for glutathione production promoting activities compared with Nahlsgen: summary of Tables 5-1 and 5-2
# Experimental: D-2-Amino-8-phosphonooctanoic acid monohydrate obtained in Example 8, which was used as a sample, was evaluated for glutathione production promoting activity by the following method (n=4).
# Specifically, normal human epidermal cells were seeded in a 96-well microplate at a density of 2.0×10^4 cells per 96 wells, using a normal human epidermal keratinocyte growth medium HuMedia KG2 (trade name, supplied by Kurabo Industries Ltd.).
# After 24 hours from the seeding, the medium was exchanged with a normal human epidermal keratinocyte growth medium HuMedia KB2 (trade name, supplied by Kurabo Industries Ltd.) containing the sample in a predetermined concentration, and the cultivation was continued. As a blank, the cells were cultured by a procedure similar to above, except for not using the sample.
# After 24-hour cultivation, the cells were disrupted by ultrasonication using a phosphate buffer containing 100 μM phenylmethylsulfonyl fluoride, and the total glutathione amount was determined by glutathione reductase recycling assay.
# Specifically, a suspension of the disrupted cells were mixed with reduced nicotinamide adenine dinucleotide phosphate and glutathione reductase, followed by reaction at 37° C. for 10 minutes.
# Next, 0.1 M phosphate buffer (containing 0.5 M EDTA, pH 7.5) containing dissolved 10 mM 5,5′-dithiobis(2-nitrobenzoic acid) was added, and the mixture was incubated for 30 minutes. The absorbance at 450 nm was measured immediately after addition, and after incubation for 30 minutes. The difference in absorbance, which is calculated by subtracting the absorbance immediately after addition from the absorbance after 30-minute incubation, was defined as an index for glutathione synthesis quantity.
# The total glutathione amount in the disrupted cell suspension was determined on the basis of a calibration curve plotted using oxidized glutathione. The protein content in the disrupted cell suspension was determined using the Pierce Microplate BCA Protein Assay Kit (Thermo SCIENTIFIC). The glutathione synthesis quantity was evaluated for differences from the untreated specimen (blank) and from the positive object by a significant difference test using Student's t-test. The results of the tests, each of which was performed two times, are given in Tables 4-1 (first test) and 4-2 (second test).
# Tests were performed (n=4) to determine glutathione production promoting activity by a procedure similar to above, except for using, as a sample instead of D-2-amino-8-phosphonooctanoic acid monohydrate, D-2-amino-4-phosphonobutanoic acid L-Arg salt obtained in Example 2, or D-2-amino-4-phosphonobutanoic acid D-Arg salt monohydrate obtained in Example 3.
# A test as a referential example was also performed by a procedure similar to above, except for using Nahlsgen (generic name: DL-2-amino-4-[(RSp)-(3-carboxymethylphenoxy) (methoxy)phosphoryl]butanoic acid), instead of the sample.
# [2] = room temperature; amorphous powdery solid obtained through lyophilization; cited from earlier work
# [3] = molecular target: gamma-glutamyl transpeptidase (GGT) (Homo sapiens, UniProt P19440); details: known from Patent Literature (PTL) 1; cited from earlier work
# Chain of gamma-glutamyl transpeptidase (GGT) (P19440 whole entry, species assumed): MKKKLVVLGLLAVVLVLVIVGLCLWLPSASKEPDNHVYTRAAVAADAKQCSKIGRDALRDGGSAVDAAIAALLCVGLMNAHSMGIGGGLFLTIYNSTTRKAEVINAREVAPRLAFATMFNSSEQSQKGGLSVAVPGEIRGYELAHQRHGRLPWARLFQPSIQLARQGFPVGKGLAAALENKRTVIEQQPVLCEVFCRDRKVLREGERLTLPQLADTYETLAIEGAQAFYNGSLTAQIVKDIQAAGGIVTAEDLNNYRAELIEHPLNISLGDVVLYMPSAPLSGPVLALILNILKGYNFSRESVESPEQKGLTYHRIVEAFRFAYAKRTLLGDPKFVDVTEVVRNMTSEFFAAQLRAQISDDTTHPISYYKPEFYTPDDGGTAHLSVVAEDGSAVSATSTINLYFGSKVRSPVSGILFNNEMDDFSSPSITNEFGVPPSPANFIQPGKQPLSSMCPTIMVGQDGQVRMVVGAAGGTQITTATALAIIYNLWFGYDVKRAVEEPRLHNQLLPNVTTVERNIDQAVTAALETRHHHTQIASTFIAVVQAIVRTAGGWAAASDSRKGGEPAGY
# [4] = Table 5-1, first test, 2.00 μmol/L
# [5] = Table 5-1, first test, 10.00 μmol/L
# [6] = Table 5-1, first test, 50.00 μmol/L
# [7] = Table 5-1, first test, 250.00 μmol/L
# [8] = Table 5-2, second test, 2.00 μmol/L
# [9] = Table 5-2, second test, 10.00 μmol/L
# [10] = Table 5-2, second test, 50.00 μmol/L
# [11] = Table 5-2, second test, 250.00 μmol/L
Compound,"GSH (pmol/μg-protein) Mean ± S.D. [1, 4]","GSH (pmol/μg-protein) Mean ± S.D. [1, 5]","GSH (pmol/μg-protein) Mean ± S.D. [1, 6]","GSH (pmol/μg-protein) Mean ± S.D. [1, 7]","GSH (pmol/μg-protein) Mean ± S.D. [1, 8]","GSH (pmol/μg-protein) Mean ± S.D. [1, 9]","GSH (pmol/μg-protein) Mean ± S.D. [1, 10]","GSH (pmol/μg-protein) Mean ± S.D. [1, 11]",glutathione production promoting activities compared with Nahlsgen [1],melting point,other results
N=C(N)NCCC[C@@H](N)C(=O)O.N[C@H](CCP(=O)(O)O)C(=O)O.O [D-2-amino-4-phosphonobutanoic acid D-Arg salt monohydrate],38.6 ± 3.1 pmol/μg-protein,46.2 ± 1.8 pmol/μg-protein,36.3 ± 4.0 pmol/μg-protein,40.9 ± 8.1 pmol/μg-protein,35.8 ± 1.1 pmol/μg-protein,35.8 ± 1.2 pmol/μg-protein,37.3 ± 1.9 pmol/μg-protein,37.1 ± 1.7 pmol/μg-protein,significant glutathione production promoting activities comparable to or higher than those of Nahlsgen,–,–
N[C@H](CCCCCCP(=O)(O)O)C(=O)O.O (hydrate or solvate) [D-2-amino-8-phosphonooctanoic acid monohydrate],–,–,–,–,–,–,–,–,–,75.3 °C,–
N=C(N)NCCC[C@H](N)C(=O)O.N[C@H](CCP(=O)(O)O)C(=O)O [D-2-amino-4-phosphonobutanoic acid L-Arg salt],49.2 ± 7.5 pmol/μg-protein,51.0 ± 1.6 pmol/μg-protein,43.9 ± 9.3 pmol/μg-protein,42.9 ± 9.8 pmol/μg-protein,37.6 ± 2.2 pmol/μg-protein,35.4 ± 2.1 pmol/μg-protein,37.2 ± 3.0 pmol/μg-protein,36.3 ± 1.5 pmol/μg-protein,significant glutathione production promoting activities comparable to or higher than those of Nahlsgen,–,–
"COP(=O)(CCC(N)C(=O)O)Oc1cccc(CC(=O)O)c1 (racemic) [Nahlsgen, DL-2-amino-4-[(RSp)-(3-carboxymethylphenoxy)(methoxy)phosphoryl]butanoic acid, reference compound]",–,44.7 ± 2.7 pmol/μg-protein,–,–,–,36.2 ± 3.4 pmol/μg-protein,36.5 ± 3.9 pmol/μg-protein,–,–,–,deliquescency / decomposition on storage [2]: deliquescent and is liable to decompose at room temperature; GGT inhibitor activity [3]: excellent gamma-glutamyl transpeptidase (GGT) inhibitor
N[C@H](CCCCCCP(=O)(O)O)C(=O)O.O [D-2-amino-8-phosphonooctanoic acid monohydrate],–,–,–,–,–,–,–,–,–,–,"GSH (pmol/μg-protein) Mean ± S.D. ([1]; Table 4-1, first test, 2.00 μmol/L): 59.5 ± 2.0 pmol/μg-protein; GSH (pmol/μg-protein) Mean ± S.D. ([1]; Table 4-1, first test, 10.00 μmol/L): 60.6 ± 2.3 pmol/μg-protein; GSH (pmol/μg-protein) Mean ± S.D. ([1]; Table 4-1, first test, 50.00 μmol/L): 59.7 ± 8.5 pmol/μg-protein; GSH (pmol/μg-protein) Mean ± S.D. ([1]; Table 4-1, first test, 250.00 μmol/L): 61.0 ± 3.0 pmol/μg-protein; GSH (pmol/μg-protein) Mean ± S.D. ([1]; Table 4-2, second test, 2.00 μmol/L): 35.3 ± 1.7 pmol/μg-protein; GSH (pmol/μg-protein) Mean ± S.D. ([1]; Table 4-2, second test, 10.00 μmol/L): 34.8 ± 1.9 pmol/μg-protein; GSH (pmol/μg-protein) Mean ± S.D. ([1]; Table 4-2, second test, 50.00 μmol/L): 34.8 ± 2.6 pmol/μg-protein; GSH (pmol/μg-protein) Mean ± S.D. ([1]; Table 4-2, second test, 250.00 μmol/L): 33.6 ± 2.3 pmol/μg-protein; glutathione production promoting activity as compared with the blank ([1]; summary of Tables 4-1 and 4-2, versus untreated specimen): significant glutathione production promoting activity"
N[C@@H](CCCCCCP(=O)(O)O)C(=O)O.O (hydrate or solvate),–,–,–,–,–,–,–,–,–,73 °C,–
